The numbers were not newly measured in patent EP2166560A1, “Maldi matrices” (Max-Planck-Gesellschaft zur Förderung der Wissenschaften …, priority 2008, dated 2010), which cites them from elsewhere.

The conditions of this data set: representative medium strong acid.

Consider `CCCCCCCCCCCCCCCCCC(=O)O` [stearic acid], for which the pK is given as 10.15.
